US9028845B2, “Chimeric immunomodulatory compounds and methods of using the same-IV” (Dynavax Technologies Corporation, priority 2001, dated 2015)

Test system: human PBMCs
Experiment: Human PBMC cytokine response assay (IFN-γ and IFN-α in cell-free medium by ELISA), with or without cPLGA;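 as to IFN-α (pg/ml) mean: 20 µg/mL compound for 24 hours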;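 as to IFN-γ (pg/ml) mean: 20 µg/mL compound for 24 hours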
Assay type: cell-based
Settings: for IFN-α (pg/ml) mean / IFN-γ (pg/ml) mean: mean of donors 110, 112, 119, 120
[1] = Table 25, mean of donors 28250-28253
[2] = Table 24, mean of donors 28234-28237

Row | Substance | IFN-α (Table 10, donor 28042) | IFN-γ (Table 10, donor 28042) | IFN-α (Table 10, donor 28043) | IFN-γ (Table 10, donor 28043) | IFN-α (Table 10, donor 28044) | IFN-γ (Table 10, donor 28044) | IFN-α (Table 10, donor 28045) | IFN-γ (Table 10, donor 28045) | IFN-α mean (Table 10, mean of donors) | IFN-γ mean (Table 10, mean of donors) | IFN-α (donor 110, Table 14) | IFN-γ (donor 110, Table 14) | IFN-α (donor 112, Table 14) | IFN-γ (donor 112, Table 14) | IFN-α (donor 119, Table 14) | IFN-γ (donor 119, Table 14) | IFN-α (donor 120, Table 14) | IFN-γ (donor 120, Table 14) | IFN-α (pg/ml) mean (Table 14) | IFN-γ (pg/ml) mean (Table 14) | further results
1 | 5′-TCGAGAT-3′ [Compound P-13, reference compound] |  |  |  |  |  |  |  |  |  |  |  |  |  |  |  |  |  |  |  |  | IFN-a (Table 25, donor 28250): 16 pg/mL; IFN-g (Table 25, donor 28250, polynucleotides/spacers at amounts equivalent to the CIC, spacers alone 9 uM): 18 pg/mL; IFN-a (Table 25, donor 28251): 16 pg/mL; IFN-g (Table 25, donor 28251): 13 pg/mL; IFN-a (Table 25, donor 28252): 16 pg/mL; IFN-g (Table 25, donor 28252): 22 pg/mL; IFN-a (Table 25, donor 28253): 16 pg/mL; IFN-g (Table 25, donor 28253): 1 pg/mL; IFN-a mean [1]: 16 pg/mL; IFN-g mean [1]: 14 pg/mL
2 | 5′-TCCATTT-3′-HEG-5′-AACGTTC-3′-HEG-5′-TGACGTT-3′ [Compound C-61] |  |  |  |  |  |  |  |  |  |  |  |  |  |  |  |  |  |  |  |  | IFN-α (Table 13, donor 28156): 3 pg/mL; IFN-γ (Table 13, donor 28156): 92 pg/mL; IFN-α (Table 13, donor 28157): 0 pg/mL; IFN-γ (Table 13, donor 28157): 179 pg/mL; IFN-α (Table 13, donor 28158): 47 pg/mL; IFN-γ (Table 13, donor 28158): 35 pg/mL; IFN-α (Table 13, donor 28159): 0 pg/mL; IFN-γ (Table 13, donor 28159): 63 pg/mL; IFN-α mean (Table 13, mean of donors): 13 pg/mL; IFN-γ mean (Table 13, mean of donors): 92 pg/mL; IFN-γ induction when formulated with cPLGA, in words (formulated with cPLGA): induced IFN-γ when formulated with cPLGA
3 | 5′-TCGTCGT-3′-HEG-5′-TGTCGTT-3′-HEG-5′-TGTCGTT-3′ [Compound C-47] | 20 pg/mL | 112 pg/mL | 0 pg/mL | 537 pg/mL | 0 pg/mL | 142 pg/mL | 0 pg/mL | 17 pg/mL | 5 pg/mL | 202 pg/mL |  |  |  |  |  |  |  |  |  |  | 
4 | (5′-TCGTCGA-3′-TEG)2-glycerol-TEG-5′-TCGTCGA-3′ [Compound C-103] |  |  |  |  |  |  |  |  |  |  |  |  |  |  |  |  |  |  |  |  | IFN-α (Table 24, donor 28234): 16 pg/mL; IFN-γ (Table 24, donor 28234): 21 pg/mL; IFN-α (Table 24, donor 28235): 21 pg/mL; IFN-γ (Table 24, donor 28235): 44 pg/mL; IFN-α (Table 24, donor 28236): 126 pg/mL; IFN-γ (Table 24, donor 28236): 250 pg/mL; IFN-α (Table 24, donor 28237): 213 pg/mL; IFN-γ (Table 24, donor 28237): 1854 pg/mL; IFN-α mean [2]: 94 pg/mL; IFN-γ mean [2]: 542 pg/mL; IFN-α induction, in words (used alone): HEG (C-94)>TEG (C-103)>C3 (C-104)=no linker (C-28)
5 | 5′-CGTTCGA-3′-HEG-5′-CGTTCGA-3′-HEG-5′-CGTTCGA-3′ [Compound C-52] | 0 pg/mL | 238 pg/mL | 3 pg/mL | 214 pg/mL | 35 pg/mL | 212 pg/mL | 48 pg/mL | 28 pg/mL | 22 pg/mL | 173 pg/mL | 2 pg/mL | 472 pg/mL | 2 pg/mL | 48 pg/mL | 292 pg/mL | 40 pg/mL | 2 pg/mL | 28 pg/mL | 75 pg/mL | 147 pg/mL | 
6 | 5′-TCGACTC-3′-HEG-5′-TCGAGCG-3′-HEG-5′-TTCTCTT-3′ [Compound C-63] |  |  |  |  |  |  |  |  |  |  | 294 pg/mL | 1536 pg/mL | 38 pg/mL | 376 pg/mL | 464 pg/mL | 80 pg/mL | 228 pg/mL | 60 pg/mL | 256 pg/mL | 513 pg/mL | 
7 | 5′-TCGTCGT-3′-HEG-5′-TCGTCGT-3′-HEG-5′-TCGTCGT-3′ [Compound C-42] | 0 pg/mL | 198 pg/mL | 29 pg/mL | 1067 pg/mL | 24 pg/mL | 4000 pg/mL | 0 pg/mL | 37 pg/mL | 13 pg/mL | 1326 pg/mL | 250 pg/mL | 1508 pg/mL | 26 pg/mL | 204 pg/mL | 156 pg/mL | 56 pg/mL | 36 pg/mL | 56 pg/mL | 117 pg/mL | 456 pg/mL | 
